In the NIST ThermoML archive (doi:10.1021/je200038n):
Numbers after ± are expanded uncertainties.

Legend:
[1] = molar heat capacity at constant pressure; conditions: 3000 kPa, Liquid, Flow calorimetry
[2] = molar heat capacity at constant pressure; wn = mass fraction of the nth substance listed; conditions: 3000 kPa, Liquid, Flow calorimetry, w1 = 1

In the case of `N` [ammonia], the “molar heat capacity at constant pressure” value ([1]; 304.17 K) is reported as 82.46 ± 0.53 J/K/mol, the “molar heat capacity at constant pressure” value ([1]; 314.14 K) is reported as 83.45 ± 0.53 J/K/mol and the “molar heat capacity at constant pressure” value ([1]; 324.11 K) is reported as 85.83 ± 0.53 J/K/mol. For the same compound, the “molar heat capacity at constant pressure” value ([1]; 334.09 K) was 89.36 ± 0.53 J/K/mol.

For `N` [ammonia] + N#C[S-].[Na+], the “molar heat capacity at constant pressure” value ([2]; 304.17 K) was 82.46 ± 0.53 J/K/mol, the “molar heat capacity at constant pressure” value ([2]; 314.14 K) was 83.45 ± 0.53 J/K/mol and the “molar heat capacity at constant pressure” value ([2]; 324.11 K) was 85.83 ± 0.53 J/K/mol. For the same compound, the “molar heat capacity at constant pressure” value ([2]; 334.09 K) was 89.36 ± 0.53 J/K/mol.
